In the NIST ThermoML archive (doi:10.1016/j.fluid.2017.06.024):
± gives the expanded uncertainty stated by the source.

Experiment: molar heat capacity at constant pressure
Details: 100 kPa, Liquid, DSC

CC(C)OC(C)C [diisopropyl ether]
Details	molar heat capacity at constant pressure [J/K/mol]
290.5 K	210.58 ± 8.6
295.44 K	212.42 ± 8.6
300.38 K	214.46 ± 8.7
305.32 K	216.51 ± 8.8
310.26 K	218.55 ± 8.9
315.19 K	220.6 ± 9
320.13 K	222.64 ± 9.1
325.07 K	224.68 ± 9.1
330.01 K	226.93 ± 9.2
334.95 K	229.08 ± 9.3
339.89 K	231.22 ± 9.4
